Assay results published in paper PMC5729930, “Bitopic fluorescent antagonists of the A2A adenosine receptor based on pyrazolo[4,3-e][1,2,4]triazolo[1,5-c]pyrimidin-5-amine functionalized congeners” (MedChemComm, 2017).

Target: 45 diverse receptors
Assay: PDSP comprehensive off-target screen
Type: binding
Conditions: PDSP comprehensive screen at 45 targets
Procedure: . Off-target binding activities at 45 diverse receptors were determined by PDSP[25] for selected compounds: 6c and 13 (ESI ^†). […]; 1.92 μM, 5HT2B receptor. Thus, the primary amine precursor of the fluorescent conjugates 10–12 was not promiscuous in its interaction with other proteins, i.e. this chemical series is not associated with pan-assay interference compounds.[26]
Chinese hamster ovary (CHO) cells stably expressing the human A2AAR were cultured in Dulbecco's Modified Eagle Medium (Mediatech, Manassas, VA) supplemented with 10% fetal bovine serum, 100 units/ml penicillin, 100 µg/ml streptomycin and 2 µmol/ml glutamine. Cells were plated in 96-well plates in 100 µl medium. After 24 h, the medium was removed and cells were washed three times with 100 µl DMEM, containing 50 mM HEPES, pH 7.4. Cells were treated with antagonists (or medium for control) in the presence of rolipram (10 µM) and adenosine deaminase (3 units/ml) and 5 min later with agonist for 20 min. The reaction was terminated by removal of the supernatant, and cells were lysed upon the addition of 100 µl of lysis buffer (0.3% Tween-20). cAMP was measured using ALPHAScreen cAMP kits (PerkinElmer, Boston, MA) as instructed by the manufacturer.
Refer to: http://pdspdb.unc.edu for full list of comprehensive screen at 45 targets.
5HT2A serotonin receptor: […]

## N.Nc1nc2c(cnn2CCCc2ccc(OCc3ccc(S(=O)(=O)O)cc3)cc2)c2nc(-c3ccco3)nn12 [compound 13]
  Off-target interactions (Ki in radioligand binding inhibition < 10 µM): None detected
